Assays:
[1] = test system: normal NK cells expanded with K562-aAPC; experiment: percent inhibition of viability; higher = more inhibition; details: 72 h, IL-2 2.5 ng/mL
Procedure: (§1)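 Drug sensitivity and resistance testing on K562-aAPC-expanded normal NK cells: 5 concentrations (10-fold steps over a 10,000-fold range), 72 h at 37 °C, viability by CellTiter-Glo normalised to DMSO and benzethonium chloride controls; DSS from the fitted curve.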

[2] = test system: DERL-7 (IL-2 2.5 ng/mL); experiment: drug sensitivity score (DSS) (DSS units); higher = more sensitive; extreme values may be limits of the assay; details: 72 h
[3] = test system: normal primary NK cells, pool 3 (3 donors) (IL-2 2.5 ng/mL); experiment: as above; details: 72 h
[4] = test system: KHYG-1 (IL-2 2.5 ng/mL); experiment: as above; details: 72 h
[5] = test system: normal primary NK cells, pool 2 (3 donors) (IL-2 2.5 ng/mL); experiment: as above; details: 72 h
[6] = test system: SNK-6 (IL-2 2.5 ng/mL); experiment: as above; details: 72 h
[7] = test system: NK-YS (IL-2 2.5 ng/mL); experiment: as above; details: 72 h
[8] = test system: normal primary NK cells, pool 1 (3 donors), resting (IL-2 0 ng/mL); experiment: as above; details: 72 h
[9] = test system: KAI3 (IL-2 2.5 ng/mL); experiment: as above; details: 72 h
[10] = test system: IMC-1 (IL-2 20 ng/mL); experiment: as above; details: 72 h
[11] = test system: normal primary NK cells, pool 1 (3 donors) (IL-2 2.5 ng/mL); experiment: as above; details: 72 h
[12] = test system: NK-92 (IL-2 2.5 ng/mL); experiment: as above; details: 72 h
[13] = test system: YT (IL-2 2.5 ng/mL); experiment: as above; details: 72 h
[14] = test system: NKL (IL-2 2.5 ng/mL); experiment: as above; details: 72 h
[15] = test system: DERL-7 (IL-2 2.5 ng/mL); experiment: percent inhibition of viability; higher = more inhibition; details: 72 h
[16] = test system: normal primary NK cells, pool 3 (3 donors) (IL-2 2.5 ng/mL); experiment: as above; details: 72 h
[17] = test system: KHYG-1 (IL-2 2.5 ng/mL); experiment: as above; details: 72 h
[18] = test system: normal primary NK cells, pool 2 (3 donors) (IL-2 2.5 ng/mL); experiment: as above; details: 72 h
[19] = test system: SNK-6 (IL-2 2.5 ng/mL); experiment: as above; details: 72 h
[20] = test system: NK-YS (IL-2 2.5 ng/mL); experiment: as above; details: 72 h
[21] = test system: normal primary NK cells, pool 1 (3 donors), resting (IL-2 0 ng/mL); experiment: as above; details: 72 h
[22] = test system: KAI3 (IL-2 2.5 ng/mL); experiment: as above; details: 72 h
[23] = test system: IMC-1 (IL-2 20 ng/mL); experiment: as above; details: 72 h
[24] = test system: normal primary NK cells, pool 1 (3 donors) (IL-2 2.5 ng/mL); experiment: as above; details: 72 h
[25] = test system: NK-92 (IL-2 2.5 ng/mL); experiment: as above; details: 72 h
[26] = test system: YT (IL-2 2.5 ng/mL); experiment: as above; details: 72 h
[27] = test system: NKL (IL-2 2.5 ng/mL); experiment: as above; details: 72 h
[28] = test system: normal NK cells expanded with K562-aAPC; experiment: drug sensitivity score (DSS) (DSS units); higher = more sensitive; extreme values may be limits of the assay; details: 72 h; IL-2 2.5 ng/mL
Procedure: as §1

Cc1ccc(NC(=O)c2ccc(CN3CCN(C)CC3)cc2)cc1Nc1nccc(-c2cccnc2)n1 [Imatinib] (max concentration tested 10000 nM)
percent inhibition of viability [%]
Details	1 nM	10 nM	100 nM	1000 nM	10000 nM
[1]	-6.85	-3.28	-7.18	1.24	91.6
[15]	0.4	-1.51	5.95	10.5	87.7
[16]	-7.45	-5.71	-0.28	8.35	31.7
[17]	-2.34	-9.57	-7.02	0.18	101
[18]	-11.8	-13	3.62	7.57	37.4
[19]	-9.34	-11	-25.2	-21.8	56.1
[20]	0.66	-5.53	-1.76	2.33	70.3
[21]	-3.96	-13.2	7.28	11.9	79
[22]	-2.16	-7.49	-4.01	-0.85	74.1
[23]	-6.61	-9.38	0.61	-5.6	101
[24]	-6.14	-4.91	10.5	15.8	64.8
[25]	-3.36	0.75	-2.9	7.24	63.5
[26]	-0.33	-5.36	0.48	5.22	96.3
[27]	-12.3	-12.6	-18.4	-6.32	71.4

Details	drug sensitivity score
[2]	6.62
[3]	2.67
[4]	5.74
[5]	3.04
[6]	2.14
[7]	4.18
[8]	6.38
[9]	4.02
[10]	5.24
[11]	5.78
[12]	4.67
[13]	6.1
[14]	3.47
[28]	5.26

CO[C@@H]1[C@H](N(C)C(=O)c2ccccc2)C[C@H]2O[C@]1(C)n1c3ccccc3c3c4c(c5c6ccccc6n2c5c31)C(=O)NC4 [Midostaurin] (max concentration tested 10000 nM)
percent inhibition of viability [%]
Details	1 nM	10 nM	100 nM	1000 nM	10000 nM
[1]	-0.81	-0.07	14.2	93.4	95.7
[15]	2.78	1.24	18.5	93.3	98.4
[16]	-7.31	-6.65	1.51	63.5	83
[17]	2.07	-3.07	17	105	99.1
[18]	-14.8	-10.1	-0.23	76.7	85.8
[19]	-0.77	8.75	42.7	95.2	97.3
[20]	1.77	2.14	11.2	65.2	78.6
[21]	-2.01	-12	7.17	29	62.3
[22]	0.66	3.14	21.1	89.4	91.2
[23]	-6.1	-6.16	-11.8	87.9	100
[24]	-13	-12.2	25.8	79.6	88.2
[25]	7.3	4.05	7.33	80.9	89.5
[26]	4.08	0.3	9.56	51.4	69.3
[27]	-4.72	-9.81	28.3	79.7	77.5

Details	drug sensitivity score
[2]	19.5
[3]	12.1
[4]	20.9
[5]	14
[6]	22.2
[7]	13.5
[8]	6.7
[9]	19.3
[10]	15.6
[11]	18
[12]	15.8
[13]	10.8
[14]	18.5
[28]	19.3

C[C@]12C=CC(=O)C=C1CC[C@@H]1[C@@H]2C(=O)C[C@@]2(C)[C@H]1CC[C@]2(O)C(=O)CO [Prednisone] (max concentration tested 10000 nM)
percent inhibition of viability [%]
Details	1 nM	10 nM	100 nM	1000 nM	10000 nM
[1]	-4.43	-1.43	-0.64	6.95	22
[15]	-1.82	-3.2	-10.6	1.18	-9
[16]	-8.77	-7.64	-1.51	-4.94	0.45
[17]	-2.3	-2.14	4.01	1.48	11.2
[18]	-7.97	-0.38	-4.79	-8.7	-1.49
[19]	-5.48	15	3.96	19.8	15
[20]	1.7	1.75	7.19	1.77	14.5
[21]	11.6	-5.07	6.95	-4.28	11.9
[22]	-0.89	-0.49	8.97	-3.86	21.4
[23]	0.28	-0.37	3.06	4.05	15.4
[24]	4.02	-6.96	4.16	-9.18	9.23
[25]	-5.87	-0.1	11.4	-3.86	13.6
[26]	1.47	5.85	29.5	18.9	32.6
[27]	-9.04	4.61	-4.53	4.17	10.7

Details	drug sensitivity score
[2]	0
[3]	0
[4]	0.05
[5]	0
[6]	2.13
[7]	0.36
[8]	0.01
[9]	0.51
[10]	0.5
[11]	0
[12]	0.06
[13]	8.17
[14]	0.06
[28]	1.61
